Where no end group is shown, it is not given here.
Columns and labels:
purified binding protein = test: competition for binding of labelled human/bovine/porcine IGF-1 to purified binding protein; conditions: competition with labelled human/bovine/porcine IGF-1
Text: This apparent discrepancy is caused by the myoblasts producing a binding protein in addition to the receptor. This binding protein selectively binds those IGF-1 peptides that have a glutamic acid residue at position 3 from the N-terminal, thus preventing the peptide binding to the cell receptor. This interpretation is established by the following results [determined by the method of Martin and Baxter, J. Biol, Chem. 261: 8754-8760, (1986)] with purified binding proteins (see Table 2).

L6 myoblasts = test: incorporation of 3H-labelled leucine into total cell protein of L6 myoblasts (protein synthesis bioassay); assay type: cell-based; conditions: for Concentration (percent of that required to give a half-response with hIGF-1): hIGF-1 half-response 12 ng/ml = 100, lower = more potent
Text: Bioassays of purified synthetic peptides have been compared with pure human/bovine/porcine IGF-1. The assays involve the incorporation of 3H-labelled leucine into the total cell protein of L6 myoblasts as described by Francis et al. (Biochem. J. 233:207-213, 1986).

## Gly--Pro--Arg--Thr--Leu--Cys--: IGF-1 analogue: glutamic acid at position 3 substituted with arginine (GPRTLC; not fully specified (C-terminus); printed as Gly—Pro—Arg—Thr—Leu—Cys—; ends and bridges not checked; also: N-terminal part of IGF-1 analogue, rest of chain not shown)
Purified binding protein
  Potency for binding to the protein where hIGF-1 = 100%: < 0.1%
L6 myoblasts
  Concentration (percent of that required to give a half-response with hIGF-1): 5%

## Gly--Pro--Gln--Thr--Leu--Cys--: IGF-1 analogue: glutamic acid at position 3 substituted with glutamine (GPQTLC; not fully specified (C-terminus); printed as Gly—Pro—Gln—Thr—Leu—Cys—; ends and bridges not checked; also: N-terminal part of IGF-1 analogue, rest of chain not shown)
Purified binding protein
  Potency for binding to the protein where hIGF-1 = 100%: 1.0%
L6 myoblasts
  Concentration (percent of that required to give a half-response with hIGF-1): 18%

## Gly--Pro--Glu--Thr--Leu--Cys--: pure human/bovine/porcine insulin-like growth factor-1, full 70-residue sequence (b3) (GPETLC; not fully specified (C-terminus); ends and bridges not checked; also: N-terminal part of IGF-1, rest of chain not shown) [reference compound]
Purified binding protein
  Potency for binding to the protein where hIGF-1 = 100%: 100%
L6 myoblasts; 3H-leucine incorporation
  concentration required to give a half-response: 12 ng/mL
L6 myoblasts
  Concentration (percent of that required to give a half-response with hIGF-1): 100%

## Gly--Pro--Gly--Arg--Leu--Cys--: IGF-1 analogue: glutamic acid 3 substituted with glycine and threonine 4 with arginine (GPGRLC; not fully specified (C-terminus); printed as Gly—Pro—Gly—Arg—Leu—Cys—; ends and bridges not checked; also: N-terminal part of IGF-1 analogue, rest of chain not shown)
Purified binding protein
  Potency for binding to the protein where hIGF-1 = 100%: < 0.1%
L6 myoblasts
  Concentration (percent of that required to give a half-response with hIGF-1): 4%

## Gly--Pro--Gly--Gly--Leu--Cys--: IGF-1 analogue: glutamic acid 3 substituted with glycine and threonine 4 with glycine (GPGGLC; not fully specified (C-terminus); printed as Gly—Pro—Gly—Gly—Leu—Cys—; ends and bridges not checked; also: N-terminal part of IGF-1 analogue, rest of chain not shown)
Purified binding protein
  Potency for binding to the protein where hIGF-1 = 100%: 0.1%
L6 myoblasts
  Concentration (percent of that required to give a half-response with hIGF-1): 14%

## Gly--Pro--Gly--Thr--Leu--Cys--: IGF-1 analogue: glutamic acid at position 3 substituted with glycine (GPGTLC; not fully specified (C-terminus); printed as Gly—Pro—Gly—Thr—Leu—Cys—; ends and bridges not checked; also: N-terminal part of IGF-1 analogue, rest of chain not shown)
Purified binding protein
  Potency for binding to the protein where hIGF-1 = 100%: 0.5%
L6 myoblasts
  Concentration (percent of that required to give a half-response with hIGF-1): 12%

## Gly--Pro--Leu--Thr--Leu--Cys--: IGF-1 analogue: glutamic acid at position 3 substituted with leucine (GPLTLC; not fully specified (C-terminus); printed as Gly—Pro—Leu—Thr—Leu—Cys—; ends and bridges not checked; also: N-terminal part of IGF-1 analogue, rest of chain not shown)
Purified binding protein
  Potency for binding to the protein where hIGF-1 = 100%: 0.5%
L6 myoblasts
  Concentration (percent of that required to give a half-response with hIGF-1): 18%

## Gly--Pro--Lys--Thr--Leu--Cys--: IGF-1 analogue: glutamic acid at position 3 substituted with lysine (GPKTLC; not fully specified (C-terminus); printed as Gly—Pro—Lys—Thr—Leu—Cys—; ends and bridges not checked; also: N-terminal part of IGF-1 analogue, rest of chain not shown)
Purified binding protein
  Potency for binding to the protein where hIGF-1 = 100%: 0.1%
L6 myoblasts
  Concentration (percent of that required to give a half-response with hIGF-1): 11%

## Gly--Thr--Leu--Cys--: IGF-1 analogue: Gly, Pro removed and glutamic acid substituted with glycine (GTLC; not fully specified (C-terminus); printed as Gly—Thr—Leu—Cys—; ends and bridges not checked; also: N-terminal part of IGF-1 analogue, rest of chain not shown)
Purified binding protein
  Potency for binding to the protein where hIGF-1 = 100%: 1.0%
L6 myoblasts
  Concentration (percent of that required to give a half-response with hIGF-1): 16%

Reference: patent US5164370A, “Peptide analogues of insulin-like growth factor 1 (IGF-1) or factor 2 (IGF-2)” (Gropep Pty. Ltd., priority 1987, dated 1992)
